Laboratory results: ChEMBL document CHEMBL1201862, “PubChem BioAssay data set” (2004)
Counter-ions that a name gives are not always drawn. Calls of active or inactive are those of the source.

Key:
[1] = glucagon-like peptide-1 release potency in STC-1, concentration-response, half-maximal inhibitory concentration in the STC-1 line (AID 1117345); type: functional, cell-based
[2] = Potency on glucagon-like peptide 1 release, dose-response in NCI-H716 cell line, half maximal inhibitory concentration (AID 1117344); type: functional, cell-based
[3] = viability loss in Vero cells – cytotoxicity control for Vif-APOBEC3G degradation inhibitor project, dose response (AID 1117358); type: functional; conditions: Vero
[4] = HIV-1 Vif–A3G interaction blockers – biochemical, TR-FRET, GST-Vif 1-94, biotin-A3G peptide, dose response retest, primary screen (AID 1117319); type: functional;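 also: TR-FRET signal of purified GST-Vif binding a biotinylated A3G peptide; inhibitors lower the FRET signal by blocking Vif and A3G binding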

| IC50 [4] | Structure (SMILES) | IC50 [1] | IC50 [2] | CC50 [3] |
| --- | --- | --- | --- | --- |
| – | COc1cc2nc(N3CCN(C(=O)C4COc5ccccc5O4)CC3)nc(N)c2cc1OC (stereo not given) [DOXAZOSIN MESYLATE] | 10.7 µM (inactive) | > 40 µM (inactive) | – |
| – | O=C(Nc1cccc(C(F)(F)F)c1)c1cccnc1NCCc1ccccc1 | – | – | > 40 µM (active) |
| > 100 µM (active) | CC(C)N1CCC2(CC1)C(C#N)=C(N)NC(S)=C2C#N | – | – | > 40 µM (active) |
